Laboratory results reported in patent US20050032646A1, “Agents for the regulation of gametophytic self-incompatibility and a control method for the breakdown of gametophytic self-incompatibility using the agents” (priority 2002, published 2005).

Columns and labels:
[1] = test system: style-specific S RNase of Fuji apple; assay: Inhibition of the activity of a style-specific S RNase by the agents; format: biochemical; conditions: for inhibiting effect for a style-specific S RNase: enzyme assay, result in words; for OD (2.0 mM): optical density at 260 nm (A260), agent 2.0 mM, no treatment 1.10
Protocol: Inhibition of S RNase activity by an agent of the present invention was measured as follows: The standard solution of 500 μL of 10 mM sodium phosphate (pH 7.0) with an agent (2.0 mM), and 500 μL of torula yeast rRNA (5 mg/mL) was pre-incubated for 10 min at 37° C. To the substrate solution, the 20 μL of the style-specific S RNase (200 ng) of Fuji apple was added, then the solution was incubated for 30 min at 37° C. A fraction of 200 μL was collected and 40 μL of stop buffer (ice-cold 25% HCIO4, 0.75% uranyl acetate) was added, then mixed and centrifuged at 12,000 rpm for 5 min. And 50 μL of the supernatant was diluted with 950 μL of dd H2O, then the solution was centrifuged and measured the optical density at 260 nm (A260) (Singh A. et al., Plant Physilolgy, 96: 61-68,1991).

Hongro apple = assay: Breakdown of the self-incompatibility in Hongro apple (self-pollination rate, field); format: in vivo; conditions: 25 days after the treatment
Protocol: In the field application experiment, Hongro apple (the Rosaceae) which has a very low self-pollination rate (<5%) was isolated single-genetically by covering up whole plants with a fine-meshed net to exclude any pollinating insects. The agent of the present invention was treated enough to get-wet flowers at various concentrations with a micro-spray at 9:00-11:00 AM. The target of the agent was the first-blooming primary apple flower. The self-pollination rate was investigated 25 days after the treatment and compared with no treatment and artificial cross-pollination.

Compound	OD (2.0 mM) [1]	other results
O=S(=O)([O-])[O-].[Ca+2] [CaSO4, reference compound]		inhibiting effect for a style-specific S RNase [1]: didn't show any positive inhibiting effect
COCCOCC(=O)[O-].COCCOCC(=O)[O-].[Cu+2] [Cu(II) 2-(2-methoxyethoxy) acetate]		self-pollination rate (Hongro apple; concentration 0.01 mM): >10%; self-pollination rate (Hongro apple; concentration 0.03 mM): >30%; self-pollination rate (Hongro apple; concentration 0.10 mM): >50%; self-pollination rate (Hongro apple; concentration 0.30 mM): >50%; self-pollination rate (Hongro apple; concentration 1.0 mM): >50%
COCCOC(C)C(=O)[O-].COCCOC(C)C(=O)[O-].[Cu+2] (stereo not shown) [Cu(II) 2-(2-methoxyethoxy)propionate, Cu(II) 2-(2-methoxyethoxy) propionate]	0.64	
CCCOCCOCCOCC(=O)[O-].CCCOCCOCCOCC(=O)[O-].[Cu+2] [Cu(II) 2-(2-propoxyethoxy)ethoxyacetate, Cu(II) 2-(2-propoxyethoxy) ethoxyacetate]	0.67	
COC(C)C(=O)[O-].COC(C)C(=O)[O-].[Cu+2] (stereo not shown) [Cu(II) 2-methoxypropionate]	0.72	
CCCOC(C)C(=O)[O-].CCCOC(C)C(=O)[O-].[Cu+2] (stereo not shown) [Cu(II) 2-propoxypropionate]	0.72	
COCCOCCOCC(=O)[O-].COCCOCCOCC(=O)[O-].[Cu+2] [Cu(II) 2-{2-(2-methoxyethoxy)ethoxy} acetate]		self-pollination rate (Hongro apple; concentration 0.01 mM): >10%; self-pollination rate (Hongro apple; concentration 0.03 mM): >20%; self-pollination rate (Hongro apple; concentration 0.10 mM): >50%; self-pollination rate (Hongro apple; concentration 0.30 mM): >50%; self-pollination rate (Hongro apple; concentration 1.0 mM): >50%
COCCOCCOC(C)C(=O)[O-].COCCOCCOC(C)C(=O)[O-].[Cu+2] (stereo not shown) [Cu(II) 2-{2-(2-methoxyethoxy)ethoxy} propionate]	0.61	
COCCOCCOCCOCC(=O)[O-].COCCOCCOCCOCC(=O)[O-].[Cu+2] [Cu(II) 2-{2-(2-methoxyethoxy)ethoxy}ethoxyacetate]	0.66	
CCOCCOc1ccc(S(=O)(=O)[O-])cc1.CCOCCOc1ccc(S(=O)(=O)[O-])cc1.[Cu+2] [Cu(II) 4-(2-ethoxyethoxy) benzene sulfonate]	0.72	
COCCOCCOc1ccc(S(=O)(=O)[O-])cc1.COCCOCCOc1ccc(S(=O)(=O)[O-])cc1.[Cu+2] [Cu(II) 4-{2-(2-methoxyethoxy)ethoxy} benzene sulfonate]	0.68	
CC(=O)[O-].CC(=O)[O-].[Cu+2] [Cu(II) Acetate]	0.70	
C=CC(=O)[O-].C=CC(=O)[O-].[Cu+2] [Cu(II) Acrylate]	0.69	
O=S(=O)([O-])c1ccccc1.O=S(=O)([O-])c1ccccc1.[Cu+2] [Cu(II) Benzene sulfonate]	0.72	
CCCC(=O)[O-].CCCC(=O)[O-].[Cu+2] [Cu(II) Butyrate]	0.69	
C[C@H](O)C(=O)[O-].C[C@H](O)C(=O)[O-].[Cu+2] [Cu(II) L-lactate]	0.72	
CCOCC(=O)[O-].CCOCC(=O)[O-].[Cu+2] [Cu(II) ethoxyacetate]	0.72	
COCC(=O)[O-].COCC(=O)[O-].[Cu+2] [Cu(II) methoxyacetate]	0.72	
Cc1ccc(S(=O)(=O)[O-])cc1.Cc1ccc(S(=O)(=O)[O-])cc1.[Cu+2] [Cu(II) p-toluene sulfonate]	0.72	
CCCOCC(=O)[O-].CCCOCC(=O)[O-].[Cu+2] [Cu(II) propoxyacetate]	0.73	
O=C[O-].O=C[O-].[Cu+2] [Cu(Il) Formate]	0.74	
O=S(=O)([O-])[O-].[K+].[K+] [K2SO4, reference compound]		inhibiting effect for a style-specific S RNase [1]: didn't show any positive inhibiting effect
O=S(=O)([O-])[O-].[Li+].[Li+] [Li2SO4, reference compound]		inhibiting effect for a style-specific S RNase [1]: didn't show any positive inhibiting effect

Compound	OD (2.0 mM) [1]	other results
O=S(=O)([O-])[O-].[Na+].[Na+] [Na2SO4, reference compound]		inhibiting effect for a style-specific S RNase [1]: didn't show any positive inhibiting effect
COCCOC(C)C(=O)[O-].COCCOC(C)C(=O)[O-].[Zn+2] (stereo not shown) [Zn(II) 2-(2-methoxyethoxy)propionate, Zn(II) 2-(2-methoxyethoxy) propionate]	0.61	
CCCOCCOCCOCC(=O)[O-].CCCOCCOCCOCC(=O)[O-].[Zn+2] [Zn(II) 2-(2-propoxyethoxy)ethoxyacetate, Zn(II) 2-(2-propoxyethoxy) ethoxyacetate]	0.69	
CCOCCOCC(=O)[O-].CCOCCOCC(=O)[O-].[Zn+2] [Zn(II) 2-ethoxy ethoxy acetate]		self-pollination rate (Hongro apple; concentration 0.01 mM): >5%; self-pollination rate (Hongro apple; concentration 0.03 mM): >20%; self-pollination rate (Hongro apple; concentration 0.10 mM): >50%; self-pollination rate (Hongro apple; concentration 0.30 mM): >60%; self-pollination rate (Hongro apple; concentration 1.0 mM): >60%
COC(C)C(=O)[O-].COC(C)C(=O)[O-].[Zn+2] (stereo not shown) [Zn(II) 2-methoxypropionate]	0.73	
CCCOC(C)C(=O)[O-].CCCOC(C)C(=O)[O-].[Zn+2] (stereo not shown) [Zn(II) 2-propoxypropionate]	0.72	
COCCOCCOCC(=O)[O-].COCCOCCOCC(=O)[O-].[Zn+2] [Zn(II) 2-{2-(2-methoxyethoxy)ethoxy} acetate]		self-pollination rate (Hongro apple; concentration 0.01 mM): >10%; self-pollination rate (Hongro apple; concentration 0.03 mM): >30%; self-pollination rate (Hongro apple; concentration 0.10 mM): >50%; self-pollination rate (Hongro apple; concentration 0.30 mM): >50%; self-pollination rate (Hongro apple; concentration 1.0 mM): >50%
COCCOCCOCCOCC(=O)[O-].COCCOCCOCCOCC(=O)[O-].[Zn+2] [Zn(II) 2-{2-(2-methoxyethoxy)ethoxy} ethoxyacetate]	0.67	
COCCOCCOC(C)C(=O)[O-].COCCOCCOC(C)C(=O)[O-].[Zn+2] (stereo not shown) [Zn(II) 2-{2-(2-methoxyethoxy)ethoxy}propionate]	0.62	
CCOCCOc1ccc(S(=O)(=O)[O-])cc1.CCOCCOc1ccc(S(=O)(=O)[O-])cc1.[Zn+2] [Zn(II) 4-(2-ethoxyethoxy) benzene sulfonate]	0.72	
COCCOCCOc1ccc(S(=O)(=O)[O-])cc1.COCCOCCOc1ccc(S(=O)(=O)[O-])cc1.[Zn+2] [Zn(II) 4-{2-(2-methoxyethoxy)ethoxy}benzene sulfonate]	0.68	
CC(=O)[O-].CC(=O)[O-].[Zn+2] [Zn(II) Acetate]	0.71	
O=S(=O)([O-])c1ccccc1.O=S(=O)([O-])c1ccccc1.[Zn+2] [Zn(II) Benzene sulfonate]	0.74	
CCCC(=O)[O-].CCCC(=O)[O-].[Zn+2] [Zn(II) Butyrate]	0.68	
O=C[O-].O=C[O-].[Zn+2] [Zn(II) Formate]	0.75	
C[C@H](O)C(=O)O.C[C@H](O)C(=O)O.[Zn] [Zn(II) L-lactate]	0.73	
CCOCC(=O)[O-].CCOCC(=O)[O-].[Zn+2] [Zn(II) ethoxyacetate]	0.73	
C=C(C)C(=O)[O-].C=C(C)C(=O)[O-].[Zn+2] [Zn(II) metacrylate]	0.70	
COCC(=O)[O-].COCC(=O)[O-].[Zn+2] [Zn(II) methoxyacetate]	0.71	
Cc1ccc(S(=O)(=O)[O-])cc1.Cc1ccc(S(=O)(=O)[O-])cc1.[Zn+2] [Zn(II) p-toluene sulfonate]	0.72	
CCCOCC(=O)[O-].CCCOCC(=O)[O-].[Zn+2] [Zn(II) propoxyacetate]	0.75	
Ce2SO4 [reference compound]		inhibiting effect for a style-specific S RNase [1]: didn't show any positive inhibiting effect
